In general, LOAEL refers to the lowest tested level that showed an adverse finding. In general, NOAEL refers to the highest tested level that showed no adverse finding.

In series [1] the test system is rat. The settings on record: Carcinogenicity, fischer, Oral, Water, dose end: 104 week, group: systemic.
Series [2] deals with mouse. The following applies: Carcinogenicity; other; Injection; Intraperitoneal; dose end: 50 week; group: systemic; systemic / pathology microscopic / lung / adenoma + systemic / pathology microscopic / lymph node / leukemia granulocytic + systemic / ….
The test system of series [3] is mouse. The settings on record: Multigenerational reproductive toxicity study, cd1, Oral, Feed, dose end: 2 generation.
Series [4] relates to rat. The following applies: Carcinogenicity, fischer, Oral, Feed, dose end: 103 week, group: systemic.
Series [5] has as its system mouse. The following applies: Subchronic oral toxicity in rodents, b6c3f1, Feed, dose end: 13 week, group: systemic.
Series [6] has as its system rat. The following applies: Sub-acute repeat dose toxicity, fischer, Oral, Feed, dose end: 14 day, group: systemic.
In series [7] the test system is rat. The following applies: Subchronic oral toxicity in rodents, fischer, Feed, dose end: 13 week, group: systemic.
Series [8] relates to mouse. The settings on record: Carcinogenicity, b6c3f1, Oral, Feed, dose end: 103 week, group: systemic.
The test system of series [9] is rat. The following applies: Developmental neurotoxicity study; long evans; Injection; Subcutaneous; dose end: 90 PND; group: cannot be grouped; reproductive / reproductive performance / sex ratio / sex ratio (% male).
Series [10] relates to mouse. The settings on record: Subchronic oral toxicity in rodents, cd1, Feed, dose end: 90 day, group: systemic, systemic / organ weight / liver / absolute + systemic / organ weight / liver / relative to body weight + systemic / organ weight / liver / ….
Series [11] concerns mouse. The following applies: Carcinogenicity; cd1; Oral; Feed; dose end: 18 month; group: systemic; systemic / organ weight / liver / nos + systemic / pathology microscopic / liver / deformity + systemic / pathology microscopic / liver / ….
For series [12], the system named is rat. The following applies: Multigenerational reproductive toxicity study, other, Oral, Feed, dose end: 2 generation.
Series [13] deals with rat. The settings on record: Combined chronic toxicity/carcinogenicity, sprague dawley, Oral, Feed, dose end: 104 week, group: systemic.
Series [14] concerns mouse. The settings on record: Carcinogenicity; cd1; Oral; Feed; dose end: 18 month; group: systemic; systemic / pathology microscopic / liver / hypertrophy.
The test system of series [15] is dog. The following applies: Chronic toxicity, beagle, Oral, Feed, dose end: 52 week, group: systemic.
Series [16] relates to dog. The following applies: Chronic toxicity, beagle, Oral, Feed, dose end: 26 week, group: systemic.
Series [17] concerns mouse. The following applies: Subchronic oral toxicity in rodents, b6c3f1, Gavage/Intubation, dose end: 20 week, group: systemic, systemic / pathology microscopic / liver / hyperplasia + systemic / pathology microscopic / stomach / hyperkeratosis + systemic / pathology ….
For series [18], the system named is mouse. The following applies: Carcinogenicity; b6c3f1; Oral; Gavage/Intubation; dose end: 2 year; group: systemic; systemic / pathology microscopic / stomach / carcinoma + systemic / pathology microscopic / stomach / papilloma + systemic / in life ….
Series [19] concerns rat. The settings on record: Carcinogenicity, fischer, Oral, Gavage/Intubation, dose end: 2 year, group: systemic.
Series [20] has as its system rat. The settings on record: Combined chronic toxicity/carcinogenicity; sprague dawley; Oral; Gavage/Intubation; dose end: 52 week; group: systemic; systemic / pathology microscopic / stomach / [other] + systemic / pathology microscopic / stomach / carcinoma + systemic / pathology ….
Series [21] deals with rat. The settings on record: Subchronic oral toxicity in rodents, fischer, Gavage/Intubation, dose end: 24 week, group: systemic.
Where [22] appears, read: systemic / in life observation / body weight / body weight gain + systemic / in life observation / water consumption / water consumption + ….
Where [23] appears, read: systemic / in life observation / water consumption / water consumption.
The mark [24] stands for this setting: group: offspring, systemic / in life observation / body weight / offspring (pup) weight.
Setting [25] is: group: parental, systemic / in life observation / body weight / body weight + systemic / organ weight / brain / relative to body weight + systemic / organ ….
Where [26] appears, read: group: reproductive, reproductive / offspring survival early / birth index / birth index + reproductive / offspring survival early / live fetuses / live fetuses.
The mark [27] stands for this setting: systemic / pathology microscopic / kidney / nephropathy.
Setting [28] is: systemic / pathology microscopic / kidney / nephropathy + systemic / pathology microscopic / kidney / hyperplasia + systemic / pathology ….
The mark [29] stands for this setting: systemic / in life observation / body weight / body weight + systemic / pathology microscopic / liver / mineralization + systemic / ….
The mark [30] stands for this setting: systemic / in life observation / food consumption / food consumption.
Where [31] appears, read: systemic / in life observation / food consumption / food consumption + systemic / in life observation / body weight / body weight.
[32] abbreviates: systemic / organ weight / kidney / relative to body weight + systemic / organ weight / liver / relative to body weight.
Setting [33] is: systemic / in life observation / body weight / body weight + systemic / pathology microscopic / thyroid gland / hyperplasia.
Setting [34] is: group: offspring, systemic / in life observation / body weight / offspring (pup) weight + systemic / in life observation / body weight / offspring (pup) ….
Where [35] appears, read: group: parental, systemic / organ weight / liver / relative to body weight.
[36] abbreviates: systemic / clinical chemistry / cholesterol / cholesterol + systemic / in life observation / body weight / body weight gain + systemic / ….
Setting [37] is: systemic / in life observation / body weight / body weight gain.
Setting [38] is: systemic / in life observation / body weight / body weight + systemic / in life observation / body weight / body weight gain + systemic / ….
[39] abbreviates: systemic / pathology microscopic / prostate / atrophy + systemic / pathology microscopic / testes / atrophy.
Setting [40] is: systemic / pathology microscopic / prostate / atrophy + systemic / pathology microscopic / testes / atrophy + systemic / pathology ….
The mark [41] stands for this setting: systemic / pathology microscopic / blood / leukemia + systemic / pathology microscopic / stomach / carcinoma + systemic / pathology ….
Setting [42] is: systemic / pathology microscopic / stomach / carcinoma + systemic / pathology microscopic / stomach / papilloma + systemic / pathology ….
Where [43] appears, read: systemic / in life observation / body weight / body weight gain + systemic / in life observation / mortality / mortality + systemic / ….

Take `O=c1[nH]cc(F)c(=O)[nH]1` [5-Fluorouracil]: in series [1] (setting [22]), the LOAEL is > 7.42 mg/kg/day and the NOAEL was ≥ 7.42 mg/kg/day. Besides, in series [1] (setting [23]), the LEL was determined as 3.85 mg/kg/day and the NEL was < 3.85 mg/kg/day. Moreover, in series [2], the LEL turned out to be 30 mg/kg/day, the LOAEL was > 30 mg/kg/day, the NEL is < 30 mg/kg/day and the NOAEL was ≥ 30 mg/kg/day.
Consider `CC(=O)Nc1ccc(O)cc1` [Acetaminophen], for which the LEL in series [3] (setting [24]) was 357 mg/kg/day; in series [3] (setting [25]), 1430 mg/kg/day; in [3] (setting [26]), 1430 mg/kg/day; in [4] (setting [28]) it was 30 mg/kg/day; in series [5] (systemic / pathology microscopic / liver / cytomegaly + systemic / pathology microscopic / liver / karyomegaly + systemic / pathology …), 930 mg/kg/day; in series [6] (setting [31]), 625 mg/kg/day. Moreover, the LEL in [7] (setting [32]) is 40 mg/kg/day; in series [8] (setting [33]), 90 mg/kg/day. Further, the LOAEL in series [3] (setting [24]) is > 1430 mg/kg/day; in series [3] (setting [25]) it was > 1430 mg/kg/day; in series [3] (setting [26]), > 1430 mg/kg/day; in [4] (setting [27]) it was 30 mg/kg/day; in series [5] (setting [29]) it was 1880 mg/kg/day; in [6] (setting [31]), 625 mg/kg/day. For the same molecule, the LOAEL turned out to be 625 mg/kg/day in series [7] (systemic / in life observation / body weight / body weight + systemic / pathology microscopic / liver / cytomegaly + systemic / pathology …) and 1000 mg/kg/day in series [8] (systemic / in life observation / body weight / body weight). Moreover, the NEL in series [3] (setting [24]) is < 357 mg/kg/day; in [3] (setting [25]), 715 mg/kg/day; in series [3] (group: reproductive, reproductive / offspring survival early / birth index / birth index), 715 mg/kg/day; in [4] (setting [28]), < 30 mg/kg/day; in [5] (setting [29]), 480 mg/kg/day; in series [6] (setting [30]), 310 mg/kg/day. Besides, the figures for the NEL in series [7] (setting [32]) and in series [8] (setting [33]) were < 40 mg/kg/day and < 90 mg/kg/day, respectively. The NOAEL was ≥ 1430 mg/kg/day in series [3] (setting [24]); ≥ 1430 mg/kg/day in series [3] (setting [25]); ≥ 1430 mg/kg/day in series [3] (setting [26]); < 30 mg/kg/day in series [4] (setting [27]); 930 mg/kg/day in series [5] (setting [29]); 310 mg/kg/day in [6] (setting [30]). In addition, the values for the NOAEL in series [7] (systemic / in life observation / body weight / body weight + systemic / in life observation / clinical signs / reduced body size + systemic…) and in [8] (setting [33]) were 310 mg/kg/day and 450 mg/kg/day, respectively.
`CCN(CC)CC(=O)Nc1c(C)cccc1C` [Lidocaine]: in [9], the LEL stood at 6 mg/kg/day, the LOAEL was > 9 mg/kg/day, the NEL worked out at 3 mg/kg/day and the NOAEL is ≥ 9 mg/kg/day.
As to `CC1OC(C)OC(C)OC(C)O1` (stereo unspecified) [Metaldehyde acetaldehyde tetramer], the LEL was 178 mg/kg/day in [10]; 135 mg/kg/day in [11]; 134 mg/kg/day in [12] (setting [34]); 80.5 mg/kg/day in [12] (group: parental, systemic / in life observation / body weight / body weight + systemic / in life observation / body weight / body weight gain); 3 mg/kg/day in series [13] (setting [37]); 48.9 mg/kg/day in series [14]. For the same molecule, the LEL stood at 10 mg/kg/day in series [15] (setting [38]) and 60 mg/kg/day in series [16] (setting [39]). For the same molecule, the LOAEL in [10] is 178 mg/kg/day; in series [11] it was 135 mg/kg/day; in series [12] (setting [34]), 134 mg/kg/day; in series [12] (setting [35]), 134 mg/kg/day; in series [13] (setting [36]) it was 44 mg/kg/day; in series [14], 48.9 mg/kg/day. For the same molecule, the LOAEL turned out to be 30 mg/kg/day in series [15] (systemic / in life observation / mortality / mortality + systemic / pathology microscopic / prostate / atrophy + systemic / pathology …) and 60 mg/kg/day in [16] (setting [39]). Also, the NEL was 54 mg/kg/day in series [10]; < 135 mg/kg/day in series [11]; 64.9 mg/kg/day in series [12] (setting [34]); 4.03 mg/kg/day in series [12] (group: parental, systemic / in life observation / body weight / body weight + systemic / in life observation / body weight / body weight gain + systemic / in…); < 3 mg/kg/day in series [13] (setting [37]); 15.9 mg/kg/day in series [14]. Further, the NEL was < 10 mg/kg/day in [15] (setting [38]) and 20 mg/kg/day in [16] (setting [40]). Also, the NOAEL in series [10] is 54 mg/kg/day; in series [11], < 135 mg/kg/day; in [12] (setting [34]), 64.9 mg/kg/day; in series [12] (setting [35]), 64.9 mg/kg/day; in series [13] (setting [36]), 2 mg/kg/day; in series [14], 15.9 mg/kg/day. Moreover, the NOAEL in [15] (systemic / in life observation / mortality / mortality + systemic / clinical chemistry / alkaline phosphatase (alp/alk) / alkaline …) was determined as 10 mg/kg/day; in series [16] (setting [40]) it was 20 mg/kg/day.
Turning to `c1ccc(C2CO2)cc1` (stereo unspecified) [Styrene oxide], the LEL worked out at 900 mg/kg/day in series [17]; 375 mg/kg/day in series [18]; 275 mg/kg/day in [19] (setting [42]); 50 mg/kg/day in [20]; 750 mg/kg/day in [21] (systemic / pathology microscopic / liver / hyperplasia). Further, the LOAEL in series [17] is > 900 mg/kg/day; in series [18], > 750 mg/kg/day; in series [19] (setting [41]), > 550 mg/kg/day; in series [20], > 250 mg/kg/day; in series [21] (setting [43]), > 3000 mg/kg/day. For the same molecule, the NEL in [17] is 600 mg/kg/day; in series [18], < 375 mg/kg/day; in [19] (setting [42]), < 275 mg/kg/day; in [20], < 50 mg/kg/day; in series [21] (setting [43]), 360 mg/kg/day. The NOAEL in series [17] was ≥ 900 mg/kg/day; in [18], ≥ 750 mg/kg/day; in [19] (setting [41]), ≥ 550 mg/kg/day; in series [20], ≥ 250 mg/kg/day; in series [21] (setting [43]), ≥ 3000 mg/kg/day.

Values taken from EPA's ToxRefDB 2.
